# From publication PMC12655527, “An Investigational Study on the Role of ADME Agents’ Genetic Variation on DD217 Pharmacokinetics and Safety Profile” (Pharmaceuticals, 2025)
# Where two headings read alike, the source gives them in different places.
# Experiment: Pharmacokinetic parameters (Tmax, AUClast, Cmax) of DD217 in phase II trial patients
# Type: in vivo, human (patients undergoing knee replacement surgery)
# Details: human, plasma
# Description: The design, eligibility criteria, and outcomes of the phase II clinical trial evaluating the safety and tolerability of DD217 (NCT05189002, ClinicalTrials.gov) have been described previously. Briefly, this was a multicenter, double-blind, randomized, prospective phase II study designed to determine the optimal dosing regimen and to assess the safety and efficacy of DD217 for the prevention of venous thromboembolism (VTE) in patients undergoing knee replacement surgery. Patients were randomized into one of three groups: two groups received oral DD217 at doses of 40 mg or 60 mg once daily, starting on the morning of the first postoperative day, and one group received the active comparator, dalteparin sodium. The treatment duration was 14 days.
# In total, data from 52 patients who underwent knee replacement surgery were included in the analysis. Of these, 34 patients received DD217 at daily doses of 40 mg (n = 16) or 60 mg (n = 18), and 18 patients received dalteparin sodium.
# To characterize the pharmacokinetic profile of DD217 in our study, three parameters were assessed: Cmax, Tmax, and AUClast.
smiles,measurement,setting,value
"CC(=N)N(C)c1ccc(C(=O)Nc2ccc(C)cc2C(=O)Nc2ccc(Cl)cn2)cc1.Cl [DD217, N-(5-chloropyridin-2-yl)-5-methyl-2-[4-(N-methylacetimidamido)benzamido]benzamide hydrochloride]",AUC(0-t),"im, 40 mg, CYP2C9 *1/*2, *1/*3, IM (n = 6), mean ± SD, read-out: AUClast",33.9 ± 36.2 ng·h/mL
same,Cmax,"im, 40 mg, CYP2C9 *1/*2, *1/*3, IM (n = 6), mean ± SD, read-out: Cmax",3.72 ± 5.61 ng/mL
same,Tmax,"im, 40 mg, CYP2C9 *1/*2, *1/*3, IM (n = 6), mean ± SD, read-out: Tmax",9 ± 8.17 h
same,AUC(0-t),"im, 40 mg, CYP2C19 *1/*2, IM (n = 1), read-out: AUClast",48.5 ng·h/mL
same,Cmax,"im, 40 mg, CYP2C19 *1/*2, IM (n = 1), read-out: Cmax",3.12 ng/mL
same,Tmax,"im, 40 mg, CYP2C19 *1/*2, IM (n = 1), read-out: Tmax",4 h
same,AUC(0-t),"im, 40 mg, CYP3A *1/*22, *1/*3, IM (n = 4), mean ± SD, read-out: AUClast",49 ± 48.7 ng·h/mL
same,Cmax,"im, 40 mg, CYP3A *1/*22, *1/*3, IM (n = 4), mean ± SD, read-out: Cmax",6.63 ± 8.63 ng/mL
same,Tmax,"im, 40 mg, CYP3A *1/*22, *1/*3, IM (n = 4), mean ± SD, read-out: Tmax",6.25 ± 3.5 h
same,AUC(0-t),"im, 60 mg, CYP2C9 *1/*2, *1/*3, IM (n = 5), mean ± SD, read-out: AUClast",89.8 ± 89.3 ng·h/mL
same,Cmax,"im, 60 mg, CYP2C9 *1/*2, *1/*3, IM (n = 5), mean ± SD, read-out: Cmax",9.24 ± 9.59 ng/mL
same,Tmax,"im, 60 mg, CYP2C9 *1/*2, *1/*3, IM (n = 5), mean ± SD, read-out: Tmax",3.2 ± 2.17 h
same,AUC(0-t),"im, 60 mg, CYP2C19 *1/*2, *2/*2, *2/*17, IM + PM (n = 4), mean ± SD, read-out: AUClast",32.3 ± 22.5 ng·h/mL
same,Cmax,"im, 60 mg, CYP2C19 *1/*2, *2/*2, *2/*17, IM + PM (n = 4), mean ± SD, read-out: Cmax",3.64 ± 3.51 ng/mL
same,Tmax,"im, 60 mg, CYP2C19 *1/*2, *2/*2, *2/*17, IM + PM (n = 4), mean ± SD, read-out: Tmax",9.5 ± 9.98 h
same,AUC(0-t),"im, 60 mg, CYP3A *1/*3, IM (n = 2), mean ± SD, read-out: AUClast",186 ± 211 ng·h/mL
same,Cmax,"im, 60 mg, CYP3A *1/*3, IM (n = 2), mean ± SD, read-out: Cmax",11.9 ± 12.7 ng/mL
same,Tmax,"im, 60 mg, CYP3A *1/*3, IM (n = 2), mean ± SD, read-out: Tmax",3.5 ± 3.54 h
same,AUC(0-t),"oral, 40 mg/day, ABCB1 rs1045642 T>C, C/C (n 5), read-out: AUClast (SD)",17.8 ng·h/mL
same,Cmax,"oral, 40 mg/day, ABCB1 rs1045642 T>C, C/C (n 5), read-out: Cmax (SD)",2.42 ng/mL
same,Tmax,"oral, 40 mg/day, ABCB1 rs1045642 T>C, C/C (n 5), read-out: Tmax (SD)",17.2 h
same,AUC(0-t),"oral, 40 mg/day, ABCB1 rs1045642 T>C, T/C (n 7), read-out: AUClast (SD)",63.6 ng·h/mL
same,Cmax,"oral, 40 mg/day, ABCB1 rs1045642 T>C, T/C (n 7), read-out: Cmax (SD)",8.03 ng/mL
same,Tmax,"oral, 40 mg/day, ABCB1 rs1045642 T>C, T/C (n 7), read-out: Tmax (SD)",6 h
same,AUC(0-t),"oral, 40 mg/day, ABCB1 rs1045642 T>C, T/T (n 4), read-out: AUClast (SD)",35.5 ng·h/mL
same,Cmax,"oral, 40 mg/day, ABCB1 rs1045642 T>C, T/T (n 4), read-out: Cmax (SD)",4.63 ng/mL
same,Tmax,"oral, 40 mg/day, ABCB1 rs1045642 T>C, T/T (n 4), read-out: Tmax (SD)",9.5 h
same,AUC(0-t),"oral, 40 mg/day, ABCB1 rs1128503 T>C, C/C (n 8), read-out: AUClast (SD)",34.6 ng·h/mL
same,Cmax,"oral, 40 mg/day, ABCB1 rs1128503 T>C, C/C (n 8), read-out: Cmax (SD)",4.84 ng/mL
same,Tmax,"oral, 40 mg/day, ABCB1 rs1128503 T>C, C/C (n 8), read-out: Tmax (SD)",12.9 h
same,AUC(0-t),"oral, 40 mg/day, ABCB1 rs1128503 T>C, C/T (n 6), read-out: AUClast (SD)",46.4 ng·h/mL
same,Cmax,"oral, 40 mg/day, ABCB1 rs1128503 T>C, C/T (n 6), read-out: Cmax (SD)",5.24 ng/mL
same,Tmax,"oral, 40 mg/day, ABCB1 rs1128503 T>C, C/T (n 6), read-out: Tmax (SD)",9.5 h
same,AUC(0-t),"oral, 40 mg/day, ABCB1 rs1128503 T>C, T/T (n 2), read-out: AUClast (SD)",60.9 ng·h/mL
same,Cmax,"oral, 40 mg/day, ABCB1 rs1128503 T>C, T/T (n 2), read-out: Cmax (SD)",8.35 ng/mL
same,Tmax,"oral, 40 mg/day, ABCB1 rs1128503 T>C, T/T (n 2), read-out: Tmax (SD)",3 h
same,AUC(0-t),"oral, 40 mg/day, ABCB1 rs2032582 G>T, G/G (n 8), read-out: AUClast (SD)",34.6 ng·h/mL
same,Cmax,"oral, 40 mg/day, ABCB1 rs2032582 G>T, G/G (n 8), read-out: Cmax (SD)",4.84 ng/mL
same,Tmax,"oral, 40 mg/day, ABCB1 rs2032582 G>T, G/G (n 8), read-out: Tmax (SD)",12.9 h
same,AUC(0-t),"oral, 40 mg/day, ABCB1 rs2032582 G>T, G/T (n 6), read-out: AUClast (SD)",46.4 ng·h/mL
same,Cmax,"oral, 40 mg/day, ABCB1 rs2032582 G>T, G/T (n 6), read-out: Cmax (SD)",5.24 ng/mL
same,Tmax,"oral, 40 mg/day, ABCB1 rs2032582 G>T, G/T (n 6), read-out: Tmax (SD)",9.5 h
same,AUC(0-t),"oral, 40 mg/day, ABCB1 rs2032582 G>T, T/T (n 2), read-out: AUClast (SD)",60.9 ng·h/mL
same,Cmax,"oral, 40 mg/day, ABCB1 rs2032582 G>T, T/T (n 2), read-out: Cmax (SD)",8.35 ng/mL
same,Tmax,"oral, 40 mg/day, ABCB1 rs2032582 G>T, T/T (n 2), read-out: Tmax (SD)",3 h
same,AUC(0-t),"oral, 40 mg/day, ABCB1 rs4148738 C>T, C/C (n 2), read-out: AUClast (SD)",60.9 ng·h/mL
same,Cmax,"oral, 40 mg/day, ABCB1 rs4148738 C>T, C/C (n 2), read-out: Cmax (SD)",8.35 ng/mL
same,Tmax,"oral, 40 mg/day, ABCB1 rs4148738 C>T, C/C (n 2), read-out: Tmax (SD)",3 h
same,AUC(0-t),"oral, 40 mg/day, ABCB1 rs4148738 C>T, T/C (n 6), read-out: AUClast (SD)",46.4 ng·h/mL
same,Cmax,"oral, 40 mg/day, ABCB1 rs4148738 C>T, T/C (n 6), read-out: Cmax (SD)",5.24 ng/mL
same,Tmax,"oral, 40 mg/day, ABCB1 rs4148738 C>T, T/C (n 6), read-out: Tmax (SD)",9.5 h
same,AUC(0-t),"oral, 40 mg/day, ABCB1 rs4148738 C>T, T/T (n 8), read-out: AUClast (SD)",34.6 ng·h/mL
same,Cmax,"oral, 40 mg/day, ABCB1 rs4148738 C>T, T/T (n 8), read-out: Cmax (SD)",4.84 ng/mL
same,Tmax,"oral, 40 mg/day, ABCB1 rs4148738 C>T, T/T (n 8), read-out: Tmax (SD)",12.9 h
same,AUC(0-t),"oral, 40 mg, CYP2C8 rs10509681 T/C (n 3), read-out: AUClast (SD)",46.9 ng·h/mL
same,Cmax,"oral, 40 mg, CYP2C8 rs10509681 T/C (n 3), read-out: Cmax (SD)",7.06 ng/mL
same,Tmax,"oral, 40 mg, CYP2C8 rs10509681 T/C (n 3), read-out: Tmax (h, SD)",16.7 h
same,AUC(0-t),"oral, 40 mg, CYP2C8 rs10509681 T/T (n 13), read-out: AUClast (SD)",41.2 ng·h/mL
same,Cmax,"oral, 40 mg, CYP2C8 rs10509681 T/T (n 13), read-out: Cmax (SD)",5.05 ng/mL
same,Tmax,"oral, 40 mg, CYP2C8 rs10509681 T/T (n 13), read-out: Tmax (h, SD)",8.92 h
same,AUC(0-t),"oral, 40 mg, CYP2C8 rs11572080 C/C (n 13), read-out: AUClast (SD)",41.2 ng·h/mL
same,Cmax,"oral, 40 mg, CYP2C8 rs11572080 C/C (n 13), read-out: Cmax (SD)",5.05 ng/mL
same,Tmax,"oral, 40 mg, CYP2C8 rs11572080 C/C (n 13), read-out: Tmax (h, SD)",8.92 h
same,AUC(0-t),"oral, 40 mg, CYP2C8 rs11572080 C/T (n 3), read-out: AUClast (SD)",46.9 ng·h/mL
same,Cmax,"oral, 40 mg, CYP2C8 rs11572080 C/T (n 3), read-out: Cmax (SD)",7.06 ng/mL
same,Tmax,"oral, 40 mg, CYP2C8 rs11572080 C/T (n 3), read-out: Tmax (h, SD)",16.7 h
same,AUC(0-t),"oral, 40 mg, CYP2C9 *1/*1, NM (n = 8), mean ± SD, read-out: AUClast",54.5 ± 49.4 ng·h/mL
same,Cmax,"oral, 40 mg, CYP2C9 *1/*1, NM (n = 8), mean ± SD, read-out: Cmax",7.28 ± 8.71 ng/mL
same,Tmax,"oral, 40 mg, CYP2C9 *1/*1, NM (n = 8), mean ± SD, read-out: Tmax",8 ± 7.15 h
same,AUC(0-t),"oral, 40 mg, CYP2C9 *2/*3, *3/*3, PM (n = 2), mean ± SD, read-out: AUClast",18.6 ± 22.5 ng·h/mL
same,Cmax,"oral, 40 mg, CYP2C9 *2/*3, *3/*3, PM (n = 2), mean ± SD, read-out: Cmax",3.11 ± 3.75 ng/mL
same,Tmax,"oral, 40 mg, CYP2C9 *2/*3, *3/*3, PM (n = 2), read-out: Tmax",24 h
same,AUC(0-t),"oral, 40 mg, CYP2C19 *1/*1, NM (n = 6), mean ± SD, read-out: AUClast",33.1 ± 48.1 ng·h/mL
same,Cmax,"oral, 40 mg, CYP2C19 *1/*1, NM (n = 6), mean ± SD, read-out: Cmax",5.25 ± 8.82 ng/mL
same,Tmax,"oral, 40 mg, CYP2C19 *1/*1, NM (n = 6), mean ± SD, read-out: Tmax",15.5 ± 9.95 h
